Measurements: patent publication US20130045952A1, “ABA Receptor Agonists for Increased Plant Stress Resistance” (Van Andel Research Institute, priority 2011, published 2013)

Tests used:
His6-PYR1 / biotin-ABI1 = target: T1, His6-PYR1 / biotin-ABI1 (Arabidopsis thaliana, UniProt O49686); assay: AlphaScreen dose response, PYR1-ABI1 interaction; type: biochemical; settings: 100 nM His6-PYR1, 100 nM biotin-PP2C, 0-100 μM agonist; from dose response curves
T1 construct: made in house; host or cells: E. coli (stated for the PP2Cs; not expressly for PYR1)
T1 sequence (O49686 1-191): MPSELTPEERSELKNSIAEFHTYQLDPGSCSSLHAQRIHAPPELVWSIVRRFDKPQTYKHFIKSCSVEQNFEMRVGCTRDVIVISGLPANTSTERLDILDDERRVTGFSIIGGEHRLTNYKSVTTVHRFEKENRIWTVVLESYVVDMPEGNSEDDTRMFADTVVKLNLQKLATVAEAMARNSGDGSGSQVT
T1 sequence (P49597 117-434 partner limits assumed): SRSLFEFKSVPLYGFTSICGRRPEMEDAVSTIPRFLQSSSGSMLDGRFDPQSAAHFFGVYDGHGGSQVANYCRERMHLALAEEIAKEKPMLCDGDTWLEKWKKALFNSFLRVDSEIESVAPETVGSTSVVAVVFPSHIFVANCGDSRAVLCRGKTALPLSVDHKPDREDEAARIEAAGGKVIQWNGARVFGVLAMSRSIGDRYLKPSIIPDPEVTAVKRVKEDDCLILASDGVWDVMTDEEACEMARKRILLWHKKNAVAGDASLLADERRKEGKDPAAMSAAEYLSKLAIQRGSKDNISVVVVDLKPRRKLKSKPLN
Method: (§1) Interactions between PYR/PYL and PP2Cs were assessed by luminescence-proximity AlphaScreen technology (Perkin Elmer). Briefly, biotinylated PP2Cs were attached to streptavidin-coated donor beads, and H6-tagged PYR/PYL receptors were attached to nickel-chelated acceptor beads. The donor and acceptor beads were brought into proximity by the interactions between PYR/PYLs and PP2Cs, which were measured with and without ligands. When excited by a laser beam of 680 nm, the donor beam emits singlet oxygen that activates thioxene derivatives in the acceptor beads, which releases photons of 520-620 nm as the binding signal. The experiments were conducted with 100 nM of PP2Cs and PYR/PYL proteins in the presence of 5 ug/ml donor and acceptor beads in a buffer of 50 mM MOPS, pH7.4, 50 mM NaF, […], and 0.1 mg/ml bovine serum albumin. The results were based on an average of three experiments with standard errors typically less than 10% of the measurements.
The results shown in Table 5b were calculated from the dose response curves of the dependence of the interaction between 100 nM His6-PYR1 and 100 nM biotin-PP2C on the presence of 0-100 μM agonists determined by AlphaScreen luminescence proximity assay. Key (EC50 in μM): ++++=<5.0 μM; +++=5-10 μM; ++=10-20 μM; and +=>20-60 μM.

His6-PYL2 / biotin-PP2C = target: T2, His6-PYL2 / biotin-PP2C (Arabidopsis thaliana, UniProt O80992); assay: AlphaScreen luminescence proximity assay, PYL2-PP2C interaction; type: biochemical; settings: for Stimulation of the interaction between PYL2 and PP2C (binding signal): 100 nM His6-PYL2, 100 nM biotin-PP2C, 100 μM agonist, normalized against a pyrabactin control
T2 construct: PYL2 (residues 14-188), and HAB1 (residues 172-511) were prepared as recombinant proteins in E. coli; made in house; host or cells: E. coli
T2 sequence (O80992 14-188): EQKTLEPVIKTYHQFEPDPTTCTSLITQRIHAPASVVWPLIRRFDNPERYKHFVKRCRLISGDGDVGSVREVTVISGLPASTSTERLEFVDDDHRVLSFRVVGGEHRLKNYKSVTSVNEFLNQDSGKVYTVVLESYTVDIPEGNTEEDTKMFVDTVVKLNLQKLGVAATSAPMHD
Method: (§2) Mutant proteins were expressed as H6GST-fusion proteins and purified by glutathione sepharose chromatography. Protein-protein interactions were determined by luminescence proximity AlphaScreen assay. Biotinylated PP2C proteins for the luminescence proximity assay were generated by in vivo biotinylation of avitag-PP2C fusion proteins. PP2C phosphatase activity was measured by phosphate release from a SnRK2.6 phosphoprotein.
as §1
(§3) Values were determined in different experiments and normalized against a pyrabactin control. Blank spaces mean no experimental data is available. Key (photon counts (binding signal units) in Alphascreen luminescence proximity assay): “+++ is >75,000; ++ is 25,000−75,000; + is <25,000.

ABI1 = target: T3, ABI1 (Arabidopsis thaliana, UniProt O49686+P49597); assay: PP2C phosphatase activity assay, ABI1; type: biochemical; settings: 200 nM PP2C; SnRK2.6 phosphopeptide substrate; None = 100
T3 construct: ABI1 (residues 117-434) and ABI2 (residues 101-423) were expressed as H6Sumo fusion proteins; H6Sumo (N); made in house; host or cells: E. coli BL21
T3 sequence (P49597 117-434 limits assumed): T1 sequence (P49597 117-434 partner limits assumed)
T3 sequence (O49686 1-191): T1 sequence (O49686 1-191)
Method: as §2
PP2Cs and PYR/PYL proteins were pre-incubated at the indicated concentrations in 50 mM imidazole, pH 7.2, 5 mM MgCl2, 0.1% β-mercaptoethanol and 0.5 mg/ml BSA for 30 min at room temperature. Reactions were started by addition of 100 μM of a phosphopeptide corresponding to amino acids 170-180 of SnRK2.6 (HSQPK^pSTVGTP). This peptide is phosphorylated at a single residue corresponding to Ser175 in SnRK2.6, whose phosphorylation is required for SnRK2.6 kinase activity^32. Phosphate release from ^pS175 from the phosphopeptide was determined by colorimetric assay (BioVision).

His6-PYR1 / biotin-PP2C = target: T4, His6-PYR1 / biotin-PP2C (Arabidopsis thaliana, UniProt O49686); assay: AlphaScreen luminescence proximity assay, PYR1-PP2C interaction; type: biochemical; settings: for Stimulation of the interaction between PYR1 and PP2C (binding signal): 100 nM His6-PYR1, 100 nM biotin-PP2C, 100 μM agonist, normalized against a pyrabactin control
T4 construct: made in house; host or cells: E. coli is stated for PYL1, PYL2 and the PP2Cs, not expressly for PYR1
T4 sequence (O49686 1-191): T1 sequence (O49686 1-191)
Method: as §2, §1, §3

His6-PYL1 / biotin-PP2C = target: T5, His6-PYL1 / biotin-PP2C (Arabidopsis thaliana, UniProt Q8VZS8); assay: AlphaScreen luminescence proximity assay, PYL1-PP2C interaction; type: biochemical; settings: for Stimulation of the interaction between PYL1 and PP2C (binding signal): 100 nM His6-PYL1, 100 nM biotin-PP2C, 100 μM agonist, normalized against a pyrabactin control
T5 construct: PYL1 (residues 36-211), PYL2 (residues 14-188), and HAB1 (residues 172-511) were prepared as recombinant proteins in E. coli; made in house; host or cells: E. coli
T5 sequence (Q8VZS8 36-211): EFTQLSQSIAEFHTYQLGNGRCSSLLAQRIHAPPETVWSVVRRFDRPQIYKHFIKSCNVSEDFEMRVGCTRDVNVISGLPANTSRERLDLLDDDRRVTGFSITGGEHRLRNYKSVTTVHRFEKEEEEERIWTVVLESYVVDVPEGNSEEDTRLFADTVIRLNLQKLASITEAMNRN
Method: as §2, §1, §3

PYR1 = target: T6, PYR1 (Arabidopsis thaliana, UniProt O49686); settings: in vivo; cited from earlier work
T6 sequence (O49686 1-191): T1 sequence (O49686 1-191)

[1] = tested on: HAB1 PP2C / PYR/PYL receptors; settings: yeast two-hybrid; cited from earlier work
[2] = purified proteins in vitro, HAB1, ABI1, ABI2

Row | Structure (SMILES) | EC50 (His6-PYR1 / biotin-ABI1) [µM] | Stimulation of the interaction between PYL2 and PP2C (binding signal) (His6-PYL2 / biotin-PP2C) | % Phosphatase Activity ABI1 (ABI1) [%] | Stimulation of the interaction between PYR1 and PP2C (binding signal) (His6-PYR1 / biotin-PP2C) | Stimulation of the interaction between PYL1 and PP2C (binding signal) (His6-PYL1 / biotin-PP2C) | Activity at PYR1 in a seed germination assay (PYR1) | Interaction of the HAB1 PP2C with PYL1 [1] | Interaction of the HAB1 PP2C with PYL2 [1] | Interaction of the HAB1 PP2C with PYL3 [1] | Interaction of the HAB1 PP2C with PYL4 [1] | Interaction of the HAB1 PP2C with PYR1 [1] | Effect on ABA-dependent PYL2 interaction with all three PP2Cs (His6-PYL2 / biotin-PP2C; in the presence of ABA, concentration-dependent) | Promotion of PYL2 interaction with the three PP2Cs (His6-PYL2 / biotin-PP2C; [2]) | Promotion of PYR1 interaction with the three PP2Cs (His6-PYR1 / biotin-PP2C; [2]) | Promotion of PYL1 interaction with the three PP2Cs (His6-PYL1 / biotin-PP2C; [2]) | Agonist activity in wildtype PYL1 (His6-PYL1 / biotin-PP2C; wildtype PYL1)
1 | O=C1Nc2ccc(S(=O)(=O)NCc3ccccn3)c3cccc1c23 [Compound 1] | 10 to 20 | + (+ is <25,000) | 3.3 ± 1.0 | + (+ is <25,000) | + (+ is <25,000) |  |  |  |  |  |  |  |  |  |  | 
2 | CCN1C(=O)c2cccc3c(S(=O)(=O)NC[C@@H]4CCCO4)ccc1c23 [Compound 11] | 10 to 20 | + (+ is <25,000) | 4.7 ± 1.0 | +++ (+++ is >75,000) | + (+ is <25,000) |  |  |  |  |  |  |  |  |  |  | 
3 | O=S(=O)(NCc1ccccn1)c1ccc(Br)c2ccccc12 [Pyrabactin, pyrabactin] | 5 to 10 |  | 2.8 ± 0.2 |  |  | selective agonist | promoted | not | promoted | not | promoted | inhibited | did not promote | strongly promoted | promoted interaction | very weak
4 | CCOC(=O)CNS(=O)(=O)c1ccc2c3c(cccc13)C(=O)N2CC [Compound 2] | 10 to 20 | + (+ is <25,000) | 4.3 ± 0.8 | +++ (+++ is >75,000) | + (+ is <25,000) |  |  |  |  |  |  |  |  |  |  | 
